Converted amounts (≈) assume the structure as drawn. “Also recorded” adds a separate entry of the source.
Legend:
[1] = cited from earlier work; for transdermal delivery into and across human skin: literature, primaquine: simple transdermal patch, full-thickness excised human skin
[2] = relative to base line; cited from earlier work
[3] = In-vitro transdermal iontophoretic delivery of primaquine patch through epidermal membranes in Mattek permeation device
[4] = blood level; cited from earlier work
[5] = Stability of primaquine after exposure to iontophoresis by TLC of receptor compartment; details: receptor compartment contents, silica gel, n-butanol:acetic acid:water (5:3:2)
plasma cholinesterase = biological target: T1, plasma cholinesterase (Homo sapiens, UniProt P06276); experiment: Selective inhibition of cholinesterase activity in plasma samples treated with quinidine; type: biochemical; details: quinidine 20 μM, BTC vs other substrate
T1 construct: plasma samples that were treated with quinidine (20 μM); from tissue; host or cells: plasma
T1 sequence (P06276 29-602): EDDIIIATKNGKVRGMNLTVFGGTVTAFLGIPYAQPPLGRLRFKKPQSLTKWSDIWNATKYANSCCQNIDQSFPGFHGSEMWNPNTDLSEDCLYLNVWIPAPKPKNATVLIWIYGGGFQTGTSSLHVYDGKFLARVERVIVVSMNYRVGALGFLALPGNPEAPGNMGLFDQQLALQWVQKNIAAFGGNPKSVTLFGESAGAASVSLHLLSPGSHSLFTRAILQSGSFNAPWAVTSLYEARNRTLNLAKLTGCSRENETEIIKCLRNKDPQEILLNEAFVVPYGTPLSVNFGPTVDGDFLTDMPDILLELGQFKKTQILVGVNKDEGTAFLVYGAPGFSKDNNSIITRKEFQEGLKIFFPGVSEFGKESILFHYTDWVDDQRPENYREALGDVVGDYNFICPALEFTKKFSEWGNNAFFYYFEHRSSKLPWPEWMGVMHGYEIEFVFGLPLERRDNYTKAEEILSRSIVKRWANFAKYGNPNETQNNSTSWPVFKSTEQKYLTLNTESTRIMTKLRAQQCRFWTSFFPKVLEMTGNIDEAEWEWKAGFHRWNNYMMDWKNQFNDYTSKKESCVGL

With `C[C@H]1c2cccc(O)c2C(=O)C2=C(O)[C@]3(O)C(=O)C(C(N)=O)=C(O)[C@@H](N(C)C)[C@@H]3[C@@H](O)[C@@H]21` [doxycycline] as the molecule, how does the “transdermal delivery into and across human skin” value [1] read?
Its value is “significant amounts”.

With `CC1CCC(C(C)C)C(O)C1` (centres unmarked) [menthol] as the molecule, how does the “increase in skin flux” value [2] read?
Its value is “up to eight times the base line”.

Which solubility (physchem) does the source give for `CN1CCCC1c1cccnc1` (centres unmarked) [nicotine] here?
Its solubility is 50 mg/mL (≈ 308 mM).

Which “transdermal delivery into and across human skin” value [1] does the source give for `COc1cc(NC(C)CCCN)c2ncccc2c1` (centres unmarked) [primaquine] here?
The value was “could deliver a therapeutic in vivo dose”.

What about the “share of the 10 mg dose delivered passively each hour” value ([1]; passive delivery, per hour) of the same molecule?
Its value is “Approximately 5%”.

What about the “amount that can be delivered transdermally” value ([1]; within 24 hours, to achieve therapeutic plasma concentrations) of the same molecule?
Its value is 10 mg.

What about the “passive diffusion before and after iontophoresis” value ([3]; human epidermal membrane, no current, receptor PBS pH 7.4) of the same molecule?
Its value is “Minimal passive diffusion”.

And the “amount delivered using electrotransport” value ([3]; in 40 minutes)?
The value was 160 µg.

And the “therapeutic dosage (level) for the treatment of malaria” value [4]?
Its value is 0.03 µg/mL.

And the “stability of the primaquine molecule after exposure to iontophoresis (TLC)” value [5]?
The value was “intact primaquine is present; also recorded: there is more than one species of molecule present”.

Which “inhibitory effect on plasma cholinesterase activity” value (plasma cholinesterase) does the source give for `C=C[C@H]1C[N@@]2CC[C@H]1C[C@@H]2[C@@H](O)c1ccnc2ccc(OC)cc12` [quinidine] here?
The value was “the inhibitory effect was observed only when BTC was used”.
